Results reported in patent publication US6884597B1, “Method for detecting acetyltransferase and deacetylase activities and method for screening inhibitors or enhancers of these enzymes” (Medical & Biological Laboratories, Co., Ltd., priority 1998, dated 2005).

How the values were obtained:
CMV promoter = CMV promoter activity in pcDNA3-GFP-harboring CHO cells detected using the GFP reporter gene; assay type: cell-based; details: 8 hours
Description: A plasmid vector (pcDNA3-GFP), in which GFP gene was introduced into a multicloning site immediately downstream of CMV promoter in pcDNA3 expression vector for mammalian cells in the forward direction was prepared by the standard method using E. coli. • 2. Introduction of the Plasmid Vector into Cells and Screening of Plasmid-Harboring Cells
pcDNA3-GFP was introduced into CHO cells by the lipofection method, and cultured for 24 hours at 37° C. in a 5% CO2 incubator (4 ml of DMEM was used as a culture medium per 6 cm-plate). Neomycin, an antibiotic, the resistance gene of which is carried on pcDNA3 plasmid, was added to the medium, and cultured for 2 weeks to select cells harboring pcDNA3-GFP. During this screening, the medium was replaced with a new one containing neomycin every four days. • 3. Screening of the Plasmid-Harboring Cells in which the Promoter Activity is Inhibited
The clones of the screened cells were transferred to separate plates and cultured. […] Several clones in which emission of the product of the GFP gene ligated downstream of CMV promoter was weak or was hardly detected were selected.
These cells were spread onto a 96-well plate for cell culture, adjusted to about 2500 cells per well (200 μl of DMEM was used as the culture medium per well), and cultured overnight (about 10 to 20 hours) at 37° C. in a 5% CO2 incubator to tightly attach the cells onto the plate. […]
The amount of GFP proteins expressing in cells in each well of the treated 96-well plate was measured with a fluorescent multiplate reader as change of fluorescence intensity.
As a result, an increase of florescence intensity was observed depending on the concentration of the deacetylase inhibitors (FIGS. 15, 16 and Tables 3 and 4).

histone deacetylase = test: Detection of change in acetylation of histone in cells with anti-acetylated lysine antibody (cell ELISA); assay type: cell-based, human; details: Hela cells, 8 hours
Description: Hela cells were spread onto a 96-well plate for cell culture by adjusting 2500 cells per well (culture medium was DMEM, 200 μl thereof was used per well), and cultured at 37° C. overnight in a 5% CO2 incubator to tightly attach the cells onto the plate. • 3. Treatment with known Inhibitors for Histone Deacetylase […]
The medium was aspirated from each well without touching the cells, and each well was washed with 200 μl of PBS three times. After washing, 200 μl of 100% methanol cooled at −20° C. in advance was added to each well, left at room temperature for 5 min to fix the cells. […] was completely aspirated and dried.
The anti-acetylated lysine residue antibody was diluted to 0.5 μg/ml with the antibody dilution buffer and 100 μl thereof was added to each washed well, and left at 30° C. for 1 hour (the first reaction). After the first reaction, each well was washed with the washing buffer in the same manner, and 100 μl of goat anti-rabbit Ig (H+L) horse radish peroxidase label (MBL) diluted 2000 folds with the antibody dilution buffer was added to each well, and left at 30° C. for 1 hour (the second reaction). Each well was washed with washing buffer, and 100 μl of horse radish peroxidase substrate solution was added to each well and incubated at 30° C. for 30 min for the coloring reaction. 100 μl of the 1.5 N phosphate solution was added thereto to terminate the coloring reaction. Absorbance at 450 nm was measured using a microtiter plate reader.
As a result, an increase of absorbance was observed depending on the concentration of the deacetylase inhibitors (FIGS. 13 and 14, and Tables 1 and 2). In this measurement, a stronger inhibition of deacetylation of histone in cells accompanies a larger degree of acetylation of histone, and absorbance was increased depending on the increase in the concentration of antigen (an acetylated histone). Therefore, an inhibition of the deacetylase activity correlates to an increase of absorbance.

Sub p53-1 = biological target: T1, Sub p53-1
T1 chain: STSRHKKLMFKTE

Sub p53-2 = biological target: T2, Sub p53-2
T2 chain: SHLKSKKGQSTSR

[1] = system: sub p53-1 and sub p53-2 peptides; test: ELISA system for measuring the acetyltransferase activity (liquid and solid phase); assay type: biochemical, human; details: 0 to 10 μg/ml; liquid and solid phases; depending on the concentration; FIGS. 9 and 10
Description: Two peptide substrates “Sub p53-1” (SEQ ID NO: 13/Bio-STSRHKKLMFKTE) and “Sub p53-2” (SEQ ID NO: 14/Bio-SHLKSKKGQSTSR) comprising the 373rd and 382nd lysine residues of the amino acid sequence of human p53, respectively, reported as an acetylation sites of acetyltransferase, were prepared by a peptide synthesizer. Amino acids in the peptide are shown in one-letter codes, and “Bio” at the amino ends means biotin. Ninety percent or higher purity was confirmed by HPLC. “Sub p53-1” and “Sub-p53-2” were composed of amino acids 376 to 388 and amino acids 367 to 379, respectively. […] The amplified PCR product was subcloned to pGEX, expressed as a fusion with GST, and purified (GST-p53 Cter). • (2) Preparation of a Peptide Substrate, “GST-p53 Cter” and a Streptoavidin Sensitized Plate […]
The synthesized peptide substrates and a recombinant acetyltransferase were reacted in the liquid phase, and the enzyme activity was measured by the ELISA system using a microtiter plate. […] 100 μl of 1.5 N phosphate solution were added to terminate the coloring reaction, and absorbance at 450 nm was measured using a microtiter plate reader. • Solid Phase Analysis System (Refer to FIG. 2) […]

## CCCC(=O)O [S. B., butyric acid]
CMV promoter; S. B. concentration 0.012 mM
  Relative fluorescence intensity (%): 8.5%
CMV promoter; S. B. concentration 0.049 mM
  Relative fluorescence intensity (%): 7.8%
CMV promoter; S. B. concentration 0.195 mM
  Relative fluorescence intensity (%): 13.3%
CMV promoter; S. B. concentration 0.78 mM
  Relative fluorescence intensity (%): 15.7%
CMV promoter; S. B. concentration 3.13 mM
  Relative fluorescence intensity (%): 50.3%
CMV promoter; S. B. concentration 12.5 mM
  Relative fluorescence intensity (%): 98.5%
CMV promoter; S. B. concentration 50 mM
  Relative fluorescence intensity (%): 100%
Histone deacetylase; S. B. concentration 0.012 mM
  Absorbance at 450 nm: 0.091
Histone deacetylase; S. B. concentration 0.049 mM
  Absorbance at 450 nm: 0.077
Histone deacetylase; S. B. concentration 0.195 mM
  Absorbance at 450 nm: 0.097
Histone deacetylase; S. B. concentration 0.78 mM
  Absorbance at 450 nm: 0.136
Histone deacetylase; S. B. concentration 3.13 mM
  Absorbance at 450 nm: 0.306
Histone deacetylase; S. B. concentration 12.5 mM
  Absorbance at 450 nm: 0.551
Histone deacetylase; S. B. concentration 50 mM
  Absorbance at 450 nm: 0.545

## CC(/C=C/C(=O)NO)=C\[C@@H](C)C(=O)c1ccc(N(C)C)cc1 [TSA, trichostatin A]
CMV promoter; TSA concentration 0.5 nM
  Relative fluorescence intensity (%): 2.2%
CMV promoter; TSA concentration 1.95 nM
  Relative fluorescence intensity (%): 1.8%
CMV promoter; TSA concentration 7.8 nM
  Relative fluorescence intensity (%): 5.1%
CMV promoter; TSA concentration 31.3 nM
  Relative fluorescence intensity (%): 12.3%
CMV promoter; TSA concentration 125 nM
  Relative fluorescence intensity (%): 34.2%
CMV promoter; TSA concentration 500 nM
  Relative fluorescence intensity (%): 73.1%
CMV promoter; TSA concentration 2000 nM
  Relative fluorescence intensity (%): 100%
Histone deacetylase; TSA concentration 0.5 nM
  Absorbance at 450 nm: 0.056
Histone deacetylase; TSA concentration 1.95 nM
  Absorbance at 450 nm: 0.056
Histone deacetylase; TSA concentration 7.8 nM
  Absorbance at 450 nm: 0.041
Histone deacetylase; TSA concentration 31.3 nM
  Absorbance at 450 nm: 0.071
Histone deacetylase; TSA concentration 125 nM
  Absorbance at 450 nm: 0.095
Histone deacetylase; TSA concentration 500 nM
  Absorbance at 450 nm: 0.278
Histone deacetylase; TSA concentration 2000 nM
  Absorbance at 450 nm: 0.476

B1: recombinant CBP (protein)
chain: QNRYHFCEKCFTEIQGENVTLGDDPSQPQTTISKDQFEKKKNDTLDPEPFVDCKECGRKMHQICVLHYDIIWPSGFVCDNCLKKTGRPRKENKFSAKRLQTTRLGNHLEDRVNKFLRRQNHPEAGEVFVRVVASSDKTVEVKPGMKSRFVDSGEMSESFPYRTKALFAFEEIDGVDVCFFGMHVQEYGSDCPPPNTRRVYISYLDSIHFFRPRCLRTAVYHEILIGYLEYVKKLGYVTGHIWACPPSEGDDYIFHCHPPDQKIPKPKRLQEWYKKMLDKAFAERIIHDYKDIFKQATEDRLTSAKELPYFEGDFWPNVLEESIKELEQEEEERKKEESTAASETTEGSQGDSKNAKKKNNKKTNKNKSSISRANKKKPSMPNVSNDLSQKLYATMEKHKEVFFVIHLHAGPVINTLPPIVDPDPLLSCDLMDGRDAFLTLARDKHWEFSSLRRSKWSTLCMLVELHTQGQDRFVYTCNEC
Sub p53-1
  acetyltransferase activity (ELISA with anti-acetylated peptide antibody, absorbance at 450 nm; liquid and solid phase): the acetyltransferase activities to "subp53-1" and "sub p53-2" peptides depending on the concentration of CBP were detected
Sub p53-2
  acetyltransferase activity (ELISA with anti-acetylated peptide antibody, absorbance at 450 nm; liquid and solid phase): the acetyltransferase activities to "subp53-1" and "sub p53-2" peptides depending on the concentration of CBP were detected
[1]
  acetyltransferase activities to sub p53-1 and sub p53-2 peptides: detected
